Results taken from PMC6727040, “Identification of a Novel Functional Corticotropin-Releasing Hormone (CRH2) in Chickens and Its Roles in Stimulating Pituitary TSHβ Expression and ACTH Secretion” (Frontiers in Endocrinology, 2019).
“Also recorded” adds a separate entry of the source. Ends that are not written are not given here. Peptide text beside a SMILES is read from it.

How the values were obtained:
[1] = tested on: CRHR1 and CRHR2; details: cited from earlier work
From the text: It has been well-documented that the roles of CRH-related peptides are mediated by two G protein-coupled receptors, namely CRH receptor 1 (CRHR1) and CRH receptor 2 (CRHR2), which share ~68% amino acid identity with each other ([6], [21], [23]). However, these neuropeptides have distinct preference for these two receptors.

[2] = tested on: chicken pituitary; details: cited from earlier work
From the text: (§1) The relatively high potency of cCRH2 in activating cCRHR2 led us to examine whether like cCRH, cCRH2 can stimulate TSH expression in the chicken pituitary (Figure 8). […] Our finding raises a new concept that apart from CRH, TRH and GCG-like peptide (GCGL) [which are re ...

[3] = target: T1, chicken CRHR1 (cCRHR1) (Gallus gallus, UniProt Q90812); experiment: pGL3-CRE-luciferase reporter assay in CHO cells expressing cCRHR1; assay type: cell-based; details: CHO cells transiently expressing cCRHR1; peptide 10^−12-10^−6M, 6 h; luciferase as fold of untreated control; N = 3 replicates
T1 construct: expressed in transfected cells; host or cells: CHO cells, transient transfection (the control used the empty pcDNA3.1(+) vector)
T1 sequence (Q90812 29-420): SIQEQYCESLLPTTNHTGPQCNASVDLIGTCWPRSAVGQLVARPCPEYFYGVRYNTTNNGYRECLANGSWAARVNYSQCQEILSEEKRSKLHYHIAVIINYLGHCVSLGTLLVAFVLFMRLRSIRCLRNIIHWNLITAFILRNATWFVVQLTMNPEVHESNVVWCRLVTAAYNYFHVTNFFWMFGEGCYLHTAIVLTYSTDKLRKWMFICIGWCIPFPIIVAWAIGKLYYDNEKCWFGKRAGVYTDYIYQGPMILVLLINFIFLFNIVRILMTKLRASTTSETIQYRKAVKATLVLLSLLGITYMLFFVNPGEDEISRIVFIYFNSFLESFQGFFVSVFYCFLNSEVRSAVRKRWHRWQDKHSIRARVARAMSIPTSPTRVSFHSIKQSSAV
Experimental: CHO cells were cultured in Dulbecco's Modified Eagle's Medium (DMEM) supplemented with 10% (vol/vol) fetal bovine serum, 100 U/ml penicillin G, and 100 µg/ml streptomycin (HyClone) in a 100 mm dish (Corning) and incubated at 37°C with 5% CO2. As described in our previous study ([35]), the functionality of cCRH2 was examined in CHO cells transiently expressing CRHR1 or CRHR2 by the pGL3-CRE-luciferase reporter system, which was utilized to monitor receptor-mediated activation of the intracellular cAMP/PKA signaling pathway. The luciferase activities in each treatment group were expressed as relative fold increase as compared with that of respective control groups (i.e., without peptide treatment).

[4] = tested on: pituitary; details: cited from earlier work
From the text: However, UCN1 expression could not be detected in the hypothalamus and pituitary stalk ([10], [11]), and the selective receptors for UCN2 and UCN3 were not detected in the pituitary ([12]–[14]), hinting that the actions of ...

[5] = tested on: pituitary; details: cited from earlier work; remark: listed apart in the source
From the text: as §1

In the case of “urocortin II (IVLSLDVPIGLLQILLEQARARAAREQATTNARILARVGHC; Urocortin-2; UniProt Q96RP3 72-112, looked up) [UCN2, CRH family peptide urocortin II]”, the “affinity/selectivity for CRHR1 and CRHR2 (in words)” value (from here on “affinity/selectivity”) [1] is given as “highly selective for CRHR2”.

In the case of GCG-like peptide [GCGL], the “chicken pituitary TSH expression/secretion (in words)” value [2] is listed as “reported to stimulate chicken pituitary TSH expression/secretion”.

Work on `CC[C@H](C)[C@H](NC(=O)[C@@H](NC(=O)[C@H](CCC(=O)O)NC(=O)[C@H](CCSC)NC(=O)[C@H](CC(C)C)NC(=O)[C@H](CCCCN)NC(=O)[C@H](CCCNC(=N)N)NC(=O)[C@H](CC(N)=O)NC(=O)[C@H](CO)NC(=O)[C@H](Cc1c[nH]cn1)NC(=O)[C@H](C)NC(=O)[C@H](CCC(N)=O)NC(=O)[C@H](CCC(N)=O)NC(=O)[C@H](C)NC(=O)[C@H](CC(C)C)NC(=O)[C@H](CCC(N)=O)NC(=O)[C@H](CCC(=O)O)NC(=O)[C@H](C)NC(=O)[C@H](CCCNC(=N)N)NC(=O)[C@H](C)NC(=O)[C@H](CCSC)NC(=O)[C@H](CCC(=O)O)NC(=O)[C@H](CC(C)C)NC(=O)[C@@H](NC(=O)[C@H](CCC(=O)O)NC(=O)[C@H](CCCNC(=N)N)NC(=O)[C@H](CC(C)C)NC(=O)[C@H](CC(C)C)NC(=O)[C@H](Cc1c[nH]cn1)NC(=O)[C@H](Cc1ccccc1)NC(=O)[C@@H](NC(=O)[C@H](CC(C)C)NC(=O)[C@H](CC(=O)O)NC(=O)[C@H](CC(C)C)NC(=O)[C@H](CO)NC(=O)[C@@H](NC(=O)[C@@H]1CCCN1C(=O)[C@@H]1CCCN1C(=O)[C@H](CCC(=O)O)NC(=O)[C@H](CCC(=O)O)NC(=O)[C@@H](N)CO)[C@@H](C)CC)[C@@H](C)O)C(C)C)[C@@H](C)CC)C(N)=O` [cCRH] yielded an EC50 [3] of 0.0003 µM.

In the case of “urocortin I (DNPSLSIDLTFHLLRTLLELARTQSQRERAEQNRIIFDSV; ends and bridges not checked; UniProt P55089 83-122, looked up) [UCN1, CRH family peptide urocortin I]”, the “affinity/selectivity” value [1] is listed as “binds to them with similar affinities” and the “ACTH-releasing activity in vitro (in words)” value ([4]; in vitro) is listed as “potent ACTH-releasing activity in vitro”.

For corticotropin-releasing hormone [CRH], the “activation of both CRH receptors in chickens (in words)” value [1] is listed as “equipotent activation of both receptors; also recorded: equipotent in activating both receptors”, the “affinity for CRHR1 versus CRHR2 (in words)” value ([1]; mammals, Xenopus and zebrafish) is listed as “higher affinity to CRHR1 than to CRHR2” and the “ACTH secretion and synthesis from the pituitary (in words)” value [4] is listed as “stimulates adrenocorticotropic hormone (ACTH) secretion and synthesis from the pituitary”. For the same compound, the “pituitary TSH secretion and/or expression (in words)” value ([5]; non-mammalian vertebrates, including birds, amphibians and reptiles) was “elevate pituitary thyroid stimulating hormone (TSH) secretion and/or expression” and the “pituitary TSH secretion and synthesis (in words)” value ([5]; some non-mammalian vertebrates including chickens) was “responsible for stimulating pituitary TSH secretion and synthesis”.

For “urocortin III (FTLSLDVPTNIMNLLFNIAKAKNLRAQAAANAHLMAQI; ends and bridges not checked; UniProt Q969E3 120-157, looked up) [UCN3, CRH family peptide urocortin III]”, the “affinity/selectivity” value [1] is given as “highly selective for CRHR2”.

Work on `CC[C@H](C)[C@H](NC(=O)[C@H](CO)NC(=O)[C@H](CCC(N)=O)NC(=O)[C@H](CC(C)C)NC(=O)[C@H](CC(C)C)NC(=O)[C@H](CC(C)C)NC(=O)[C@H](CCCCN)NC(=O)[C@H](CC(N)=O)NC(=O)[C@H](CO)NC(=O)[C@H](CC(C)C)NC(=O)[C@H](C)NC(=O)[C@H](CCCCN)NC(=O)[C@H](CCC(N)=O)NC(=O)[C@H](C)NC(=O)[C@H](CC(C)C)NC(=O)[C@H](CCCNC(=N)N)NC(=O)[C@H](CCC(=O)O)NC(=O)[C@H](CCC(=O)O)NC(=O)[C@H](CCCNC(=N)N)NC(=O)[C@H](CO)NC(=O)[C@H](CCSC)NC(=O)[C@H](CCC(=O)O)NC(=O)[C@H](CC(C)C)NC(=O)[C@H](Cc1ccccc1)NC(=O)[C@H](CCC(=O)O)NC(=O)[C@H](CCCNC(=N)N)NC(=O)[C@H](CC(C)C)NC(=O)[C@H](CC(C)C)NC(=O)[C@H](Cc1c[nH]cn1)NC(=O)[C@H](Cc1ccccc1)NC(=O)[C@@H](NC(=O)[C@H](CC(C)C)NC(=O)[C@H](CC(=O)O)NC(=O)[C@H](CC(C)C)NC(=O)[C@H](CO)NC(=O)[C@H](CC(N)=O)NC(=O)[C@@H]1CCCN1C(=O)[C@H](CCCCN)NC(=O)CNC(=O)[C@@H](N)CCC(=O)O)[C@@H](C)O)C(N)=O` [cCRH2] (H-EGKPNSLDLTFHLLREFLEMSREERLAQKALSNKLLLQSI-NH2) yielded an EC50 [3] of 0.0286 µM.
